# Laboratory results from patent publication US12473304B2, “Heterocyclic PAD4 inhibitors” (BRISTOL-MYERS SQUIBB COMPANY, priority 2020, dated 2025).
# Target: recombinant human PAD4 (Homo sapiens (Human), UniProt Q9UM07)
# Assay: RFMS Human PAD4 Functional Assay 2
# Assay type: biochemical
# Conditions: RFMS assay 2; 35 nM recombinant human PAD4, 500 μM TSTGGRQGSHH peptide, 2 mM CaCl2, room temperature 30 minutes; read-out: hPAD4 RFMS IC50
# Protocol: RFMS Human PAD4 Functional Assay 2: Compound Preparation: • Stock compounds were dissolved and stored in 100% DMSO. Compound solutions were prepared via serial dilution at 3-fold intervals in DMSO with top compound concentration at 20 μM in each assay. 0.25 μl of compound solution was transferred from the compound plate to the assay plate by using an acoustic dispenser. Final Assay Conditions: • Total reaction volume: 25 μl • Assay buffer: […] pH 7.4, 200 mM NaCl, 2 mM CaCl2, 5 mM DTT • 35 nM recombinant human PAD4 • 500 μM TSTGGRQGSHH peptide • […] DMSO • Stop solution: 10% formic acid
# Reaction mixtures were incubated at room temperature for 30 minutes. 10 μl each of the reaction mixtures was then mixed with 40 μl of 10% formic acid in a microtiter plate. The plate was frozen at −80° C. before shipping out on dry ice for RapidFire mass spectroscopy analysis.
# Thawed samples were loaded onto the Rapid Fire 300 system (Agilent) wherein they were first sipped for 250 ms and then loaded onto an Agilent “C” (C18) cartridge using a mobile phase of water containing 0.09% formic acid/0.01% trifluoroacetic acid for 3000 ms desalting flowing at a rate of 1.5 ml/min. Once the samples were loaded and washed, a mobile phase of acetonitrile containing 0.09% formic acid/0.01% trifluoroacetic acid was used to elute the samples directly onto a Sciex API4000 triple quadrupole mass spectrometer for 3000 ms at a flow rate of 1.25 ml/min.
# MRM transitions for substrate and product were monitored in positive ESI mode at m/z=562.3/969.7 and m/z=562.8/541.3 respectively. The dwell time for each transition was set at 100 ms, and the ESI voltage was used at 5500 with a source temperature of 650° C. Extracted ion peaks for each transition were integrated using the Rapid Fire Integrator software.
# recombinant human PAD4, sequence (Q9UM07 whole entry): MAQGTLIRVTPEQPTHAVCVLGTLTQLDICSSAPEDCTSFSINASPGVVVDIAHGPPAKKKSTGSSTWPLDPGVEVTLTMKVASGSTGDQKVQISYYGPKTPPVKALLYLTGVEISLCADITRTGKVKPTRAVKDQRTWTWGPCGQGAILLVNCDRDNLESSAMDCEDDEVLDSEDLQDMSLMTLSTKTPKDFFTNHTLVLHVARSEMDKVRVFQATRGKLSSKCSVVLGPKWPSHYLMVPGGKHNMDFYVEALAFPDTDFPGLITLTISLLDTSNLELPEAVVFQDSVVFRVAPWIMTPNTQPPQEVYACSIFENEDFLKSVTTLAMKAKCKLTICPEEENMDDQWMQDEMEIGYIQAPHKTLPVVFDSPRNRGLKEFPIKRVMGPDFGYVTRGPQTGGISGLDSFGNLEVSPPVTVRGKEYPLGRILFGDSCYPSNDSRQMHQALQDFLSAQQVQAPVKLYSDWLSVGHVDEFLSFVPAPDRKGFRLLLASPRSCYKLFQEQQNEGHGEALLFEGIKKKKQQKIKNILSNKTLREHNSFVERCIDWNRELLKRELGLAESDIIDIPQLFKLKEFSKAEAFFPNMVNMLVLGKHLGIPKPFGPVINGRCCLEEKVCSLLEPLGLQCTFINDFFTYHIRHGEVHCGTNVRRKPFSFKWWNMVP
row,IC50,SMILES
1,209 nM,"COc1cc(C(=O)N2C[C@H](N)C[C@@H](F)C2)cc2oc(-c3cc4cccc(OCCO)c4n3CC3CC3)c(CCO)c12 [Example 634, ((3R,5R)-3-amino-5-fluoropiperidin-1-yl)(2-(1-(cyclopropylmethyl)-7-(2-hydroxyethoxy)-1H-indol-2-yl)-3-(2-hydroxyethyl)-4-methoxybenzofuran-6-yl)methanone]"
2,216 nM,"COc1cc(C(=O)N2C[C@H](N)C[C@@H](F)C2)cc2oc(-c3cc4cccc(OCCn5cncn5)c4n3CC3CC3)c(CCO)c12 [Example 635, (2-(7-(2-(1H-1,2,4-triazol-1-yl)ethoxy)-1-(cyclopropylmethyl)-1H-indol-2-yl)-3-(2-hydroxyethyl)-4-methoxybenzofuran-6-yl)((3R,5R)-3-amino-5-fluoropiperidin-1-yl)methanone]"

# The next lines start with the molecule.
row,SMILES,IC50
1,"COc1cc(C(=O)N2C[C@H](N)C[C@@H](F)C2)cc2oc(-c3cc4cccc(OCC5CNC5)c4n3CC3CC3)c(CCO)c12 [Example 636, ((3R,5R)-3-amino-5-fluoropiperidin-1-yl)(2-(7-(azetidin-3-ylmethoxy)-1-(cyclopropylmethyl)-1H-indol-2-yl)-3-(2-hydroxyethyl)-4-methoxybenzofuran-6-yl)methanone]",277 nM
2,"COc1cc(C(=O)N2C[C@H](N)C[C@@H](F)C2)cc2oc(-c3cc4cccc(OCC5CN(C)C5)c4n3CC3CC3)c(CCO)c12 [Example 637, ((3R,5R)-3-amino-5-fluoropiperidin-1-yl)(2-(1-(cyclopropylmethyl)-7-((1-methylazetidin-3-yl)methoxy)-1H-indol-2-yl)-3-(2-hydroxyethyl)-4-methoxybenzofuran-6-yl)methanone]",621 nM
3,"COc1cc(C(=O)N2C[C@H](N)C[C@@H](F)C2)cc2oc(-c3cc4cccc(OCC5COC5)c4n3CC3CC3)c(CCO)c12 [Example 638, ((3R,5R)-3-amino-5-fluoropiperidin-1-yl)(2-(1-(cyclopropylmethyl)-7-(oxetan-3-ylmethoxy)-1H-indol-2-yl)-3-(2-hydroxyethyl)-4-methoxybenzofuran-6-yl)methanone]",295 nM
4,"COc1cc(C(=O)N2C[C@H](N)C[C@@H](F)C2)cc2oc(-c3cc4cccc(OCc5ncno5)c4n3CC3CC3)c(CCO)c12 [Example 639, (2-(7-((1,2,4-oxadiazol-5-yl)methoxy)-1-(cyclopropylmethyl)-1H-indol-2-yl)-3-(2-hydroxyethyl)-4-methoxybenzofuran-6-yl)((3R,5R)-3-amino-5-fluoropiperidin-1-yl)methanone]",243 nM
